From PMC11078746 (Nature, 2024)

What was measured:
Rat PK = assay type: in vivo
Experimental: PK parameters were determined by non-compartmental analysis. Intravenous bolus studies in mouse, rat and dog were performed at 1, 1 and 0.1 mg per kg respectively (Extended Data Table 1).

MDCK LE permeability = assay type: in vitro ADME, canine; conditions: dog, Fig. 1b
RecQ5 = molecular target: T1, RecQ5 (Homo sapiens, UniProt O94762); test: RecQ selectivity ATPase assay; assay type: biochemical
T1 construct: Human RecQ5-D1D2 (UniProt: O94762, Asp11–Trp453); His tag (N); made in house; host or cells: E. coli BL21(DE3), by the 'analogous procedure'
T1 sequence (O94762 11-453): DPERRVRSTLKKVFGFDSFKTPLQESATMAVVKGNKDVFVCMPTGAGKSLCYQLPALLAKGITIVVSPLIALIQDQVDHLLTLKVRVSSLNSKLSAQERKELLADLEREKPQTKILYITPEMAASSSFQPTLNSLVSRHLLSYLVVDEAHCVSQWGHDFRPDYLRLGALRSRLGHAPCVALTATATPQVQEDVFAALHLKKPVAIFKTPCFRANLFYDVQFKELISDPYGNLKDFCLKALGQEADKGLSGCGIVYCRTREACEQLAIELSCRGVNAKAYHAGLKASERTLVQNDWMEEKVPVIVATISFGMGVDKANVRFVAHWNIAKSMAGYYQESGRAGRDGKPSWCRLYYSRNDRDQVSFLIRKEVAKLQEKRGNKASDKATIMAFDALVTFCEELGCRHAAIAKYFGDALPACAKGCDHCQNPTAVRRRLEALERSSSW
Experimental: (§1) DNA sequence allowing expression of human BLM-D1D2RH (UniProt P54132: Lys640–Gly1298) fused at the amino-terminal end to His tag followed by TEV-cleavage site, was inserted into a pET-derived vector. Protein expression was performed in BL21(DE3) cells after IPTG induction. Cells were collected and resuspended in lysis buffer (50 mM NaH2PO4, 300 mM NaCl, 1 mM TCEP, 20 mM imidazole, pH 8.0) supplemented with 2 mM MgCl2, benzonase and 0.5 mM AEBSF. Cells were lysed with an Emulsiflex C3 homogenizer. After ultracentrifugation, the lysate was loaded onto a HisTrap HP column. Bound protein was eluted with an imidazole gradient in lysis buffer. The amino-terminal tag was cleaved with TEV protease. Cleaved protein was loaded on Resource S ion-exchange column and eluted with a NaCl gradient in IEX buffer (20 mM Tris, 1 mM TCEP, 10% glycerol, 20 mM NaCl, pH 7.4). As a final step, BLM-D1D2RH protein was concentrated and loaded onto the Superdex 75 gel-filtration column pre-equilibrated with SEC buffer (50 mM Tris, 150 mM NaCl, 10% glycerol, pH 7.4). Eluted target protein was concentrated and frozen on dry ice. An analogous procedure was used for the expression and purification of human RecQ1-D1D2 (UniProt: P46063, Asp62–Ser482) and Human RecQ5-D1D2 (UniProt: O94762, Asp11–Trp453) proteins.
(§2) We used an ADP-Glo assay kit (Promega) to monitor ATP hydrolysis. A 45-oligonucleotide with the following sequence: […], referred to as FLAP26, as described previously[45] was purchased from IDT (Integrated DNA Technologies) and used as a DNA substrate. […] The reaction was started by addition of 2.5 μl of ssDNA substrate at 0.4 nM and incubated for 30 min at room temperature. The reaction was stopped with the addition of 5 μl of the first ADP-Glo reagent and incubated for 1 h to remove the excess amount of ATP. Then, 10 μl of ATP detection reagent was added and incubated for an additional hour before reading. The luminescence output was recorded using the Pherastar reader, with a 5 min delay before reading. Each concentration of compounds was tested in duplicates in the assay plate. The compound potency (IC50 value) was determined using custom software (Novartis Helios software application) with a four-parameter sigmoid Hill-curve model. After normalization of activity values for the wells to percentage inhibition (percentage inhibition = [(high control activity − sample activity)/(high control activity − low control activity)] × 100), IC50 fitting was performed from the duplicate determinations present on each plate.
(§3) The same ATPase assay protocol was used with the three other RecQ protein constructs to assess the selectivity over WRN. Time-course experiments were performed to determine the best enzymatic assay conditions for each RecQ protein. The experiments were run as described above with 10 nM RecQ1 protein construct with 10 nM ssDNA substrate, 2 nM BLM protein construct with 0.2 nM ssDNA substrate and 0.5 nM RecQ5 protein construct with 2 nM ssDNA substrate, respectively.

RecQ1 = molecular target: T2, RecQ1 (Homo sapiens, UniProt P46063); test: RecQ selectivity ATPase assay; assay type: biochemical
T2 construct: human RecQ1-D1D2 (UniProt: P46063, Asp62–Ser482); His tag (N); made in house; host or cells: E. coli BL21(DE3), by the 'analogous procedure'
T2 sequence (P46063 62-482): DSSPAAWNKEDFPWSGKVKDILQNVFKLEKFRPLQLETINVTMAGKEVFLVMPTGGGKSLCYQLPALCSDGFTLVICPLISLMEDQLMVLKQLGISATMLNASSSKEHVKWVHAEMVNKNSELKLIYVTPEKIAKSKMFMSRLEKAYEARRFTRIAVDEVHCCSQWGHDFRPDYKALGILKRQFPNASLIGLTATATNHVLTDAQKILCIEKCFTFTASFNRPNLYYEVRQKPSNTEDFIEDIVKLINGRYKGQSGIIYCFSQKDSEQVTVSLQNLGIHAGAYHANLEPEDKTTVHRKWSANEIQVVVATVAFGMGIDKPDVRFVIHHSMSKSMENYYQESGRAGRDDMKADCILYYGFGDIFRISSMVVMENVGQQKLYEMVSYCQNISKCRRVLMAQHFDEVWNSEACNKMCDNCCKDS
Experimental: as §1, §2, §3

logD / logP = assay type: physicochemical; conditions: 1-octanol/water, pH 7.4, 1-octanol and water at pH 7.4
[1] = molecular target: T3, WRN D1D2RH (Asn517–Pro1238) (Homo sapiens, UniProt Q14191); test: Cy5-ATPγS binding assay using TR-FRET (ATP binding)
T3 construct: 10 nM WRN D1D2RH (protein construct (Asn517–Pro1238)); His tag (N, cleaved yes); ZZ tag (N, cleaved yes); made in house; host or cells: Sf21 insect cells (baculovirus)
T3 sequence (Q14191 517-1238): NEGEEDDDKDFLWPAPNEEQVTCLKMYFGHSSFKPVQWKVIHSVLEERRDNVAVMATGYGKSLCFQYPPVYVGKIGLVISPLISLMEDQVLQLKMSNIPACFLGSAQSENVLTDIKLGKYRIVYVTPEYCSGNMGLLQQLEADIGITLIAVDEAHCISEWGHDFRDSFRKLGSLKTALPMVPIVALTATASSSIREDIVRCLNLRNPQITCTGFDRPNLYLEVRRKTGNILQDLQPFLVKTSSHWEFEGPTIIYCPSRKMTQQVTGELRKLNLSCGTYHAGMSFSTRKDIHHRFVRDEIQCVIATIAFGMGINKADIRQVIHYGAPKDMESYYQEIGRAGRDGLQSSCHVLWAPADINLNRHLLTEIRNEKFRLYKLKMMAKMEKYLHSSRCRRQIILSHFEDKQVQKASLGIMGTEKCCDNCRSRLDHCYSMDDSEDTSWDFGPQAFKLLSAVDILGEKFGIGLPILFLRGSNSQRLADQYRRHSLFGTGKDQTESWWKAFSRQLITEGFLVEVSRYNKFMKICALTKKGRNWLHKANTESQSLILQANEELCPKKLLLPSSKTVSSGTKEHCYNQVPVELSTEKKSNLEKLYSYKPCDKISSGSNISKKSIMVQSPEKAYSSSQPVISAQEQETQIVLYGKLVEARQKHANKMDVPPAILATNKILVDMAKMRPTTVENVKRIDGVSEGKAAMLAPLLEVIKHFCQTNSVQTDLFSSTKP
Experimental: A ratio of F665 over F620 was then calculated to determine the FRET efficiency in each well. This assay protocol was used during hit optimization to build the initial structure–activity relationship and was also adapted to 1,536-well plates for screening purposes.

[2] = molecular target: T3, WRN D1D2RH (Asn517–Pro1238); test: ATPase activity analysis, ADP-Glo; assay type: biochemical
Experimental: as §2

[3] = system: WRN protein in MSI and MSS cells; test: WRN degradation (immunoblot, ELISA); assay type: cell-based, human
Experimental: A list of all of the antibodies is provided in Supplementary Table 2. […] The plates were washed in PBS and 200 µl per well of blocking reagent added (PBS, 0.05% Tween-20, 5% skimmed milk), and the plates were incubated for a minimum of 2 h at room temperature. […] The plates were then washed and 50 µl of secondary antibody per well diluted in blocking buffer was added and the plates were incubated overnight at 4 °C. The next day, 50 µl of tertiary antibody was added per well buffer and the plates were incubated for 2 h at room temperature. […] The plates were shaken and luminescence was detected immediately on the Synergy HT microplate reader.

WRN (D1D2RH) = molecular target: T4, WRN (D1D2RH) (Homo sapiens, UniProt Q14191); test: Radioactive binding assay using an SPA (saturation binding); conditions: 10 nM WRN
T4 construct: N-terminal Avi Tag-WRN(Asn517–Pro1238)
T4 sequence (Q14191 517-1238): as above
Experimental: A total of 20 μl N-terminal Avi tag-WRN protein (Asn517-Pro1238) in 30 mM Tris pH 7.5, 30 mM NaCl, […], 0.02% BSA, 0.1% Pluronic F127, containing or not a fivefold higher concentration of dsDNA as compared to protein concentration, were incubated with 20 μl [^3H]-probe 6 (Extended Data Fig. 2f) for 1 h at room temperature. Then, 10 μl Streptavidin-coated PVT scintillation proximity assay (SPA) beads (Perkin Elmer, RPNQ0009) were added and the plate was read after 30 min in a TopCount luminescence reader (1 min, delay,1 min per well). The final assay concentrations were 10 nM WRN, 50 nM dsDNA (for the condition with dsDNA), a concentration range of radioligand as shown in the graphs and 50 μg per well of PVT SPA beads. The dsDNA was the same substrate as used in the DNA-unwinding assay (without labels).

SW48 xenografts = test: SW48 xenograft efficacy, HRO761, irinotecan and combination; assay type: in vivo, mouse; conditions: Irinotecan 60mg/kg
Experimental: All animal studies were conducted in accordance with ethics and procedures covered by permit BS-2275 and BS-1975 issued by the Kantonales Veterinäramt Basel-Stadt and in strict adherence to guidelines of the Eidgenössisches Tierschutzgesetz and the Eidgenössische Tierschutzverordnung, Switzerland. All animal studies were approved by the internal ethics committee. All animals had access to food and water ad libitum and were identified with transponders. They were housed in a specific-pathogen-free facility in IVC racks under a 12 h–12 h light–dark cycle. To establish cell-line-derived xenograft models, 6–7-week-old female athymic nude (Crl:NU(NCr)-Foxn1^nu) or SCID-BEIGE (CB17.Cg-PrkdcscidLystbg-J/Crl) mice from Charles River were engrafted subcutaneously with 5 million tumour cells in HBSS (H6648, Sigma-Aldrich). For SNU-407, Lovo, IM95, RL95.2, Ishikawa and IGROV-1, the cells were concentrated in 50% Matrigel (354234, Corning). Patient-derived xenografts were induced and expanded by transplantation as previously described. […] For the efficacy experiment, mice were randomized into groups (n = 5–6) for a mean tumour size of 100–150 mm^3. […] Blood samples were collected on day 7 and 91. […] Tumour responses are reported with the measures of tumour volumes from the treatment start. […] Animals were randomized (n = 3) and tumour samples were collected at 0, 1, 4, 8 and 24 h on the first day and then collected 4 h after the last treatment on day 3, 8, 10, 14 (including a 24 h timepoint), 17 and 21. Tumours were excised, weighed, either frozen in liquid nitrogen and cryogenic dry pulverized with the CryoPrep system (model CP-02, Covaris) or processed to FFPE after fixation. […] On day 12, blood samples were collected for PK analysis. On the last day (3 h after the last treatment), tumours were excised, weighed, frozen in liquid nitrogen and cryogenic dry pulverized for PD analysis.

[4] = molecular target: T5, WRN D1D2 WT (WRN 517–945) (Homo sapiens, UniProt Q14191); test: ATPase assay; conditions: read-out: Biochemical IC50 ATPase WRN D1D2 WT
T5 construct: the minimal D1–D2 helicase core (WRN 517–945)
T5 sequence (Q14191 517-945): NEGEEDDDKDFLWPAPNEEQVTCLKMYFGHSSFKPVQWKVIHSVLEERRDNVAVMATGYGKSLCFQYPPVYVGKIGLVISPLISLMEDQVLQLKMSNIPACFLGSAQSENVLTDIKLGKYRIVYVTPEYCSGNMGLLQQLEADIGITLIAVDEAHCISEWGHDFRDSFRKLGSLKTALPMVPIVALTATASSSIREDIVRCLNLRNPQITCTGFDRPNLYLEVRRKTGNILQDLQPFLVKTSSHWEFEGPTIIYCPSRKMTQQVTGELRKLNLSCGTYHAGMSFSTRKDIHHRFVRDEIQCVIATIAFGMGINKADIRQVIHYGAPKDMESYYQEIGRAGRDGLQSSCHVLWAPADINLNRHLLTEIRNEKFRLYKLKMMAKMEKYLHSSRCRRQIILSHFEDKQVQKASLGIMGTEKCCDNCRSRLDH
Experimental: as §2

WRN D1D2 C727S = molecular target: T6, WRN D1D2 C727S (Homo sapiens, UniProt Q14191, C727S); test: ATPase assay; conditions: read-out: Biochemical IC50 ATPase WRN D1D2 C727S
T6 construct: the minimal D1–D2 helicase core (WRN 517–945)
T6 sequence (Q14191 517-945 C727S): as the sequence (Q14191 517-945) above, with C211S counted along it
Experimental: as §2

WRN full length = molecular target: T7, WRN full length (Homo sapiens, UniProt Q14191); test: ATPase assay; conditions: read-out: Biochemical IC50 ATPase WRN full length
T7 construct: ATPase WRN full length: 0.02; made in house
T7 sequence (Q14191 whole entry): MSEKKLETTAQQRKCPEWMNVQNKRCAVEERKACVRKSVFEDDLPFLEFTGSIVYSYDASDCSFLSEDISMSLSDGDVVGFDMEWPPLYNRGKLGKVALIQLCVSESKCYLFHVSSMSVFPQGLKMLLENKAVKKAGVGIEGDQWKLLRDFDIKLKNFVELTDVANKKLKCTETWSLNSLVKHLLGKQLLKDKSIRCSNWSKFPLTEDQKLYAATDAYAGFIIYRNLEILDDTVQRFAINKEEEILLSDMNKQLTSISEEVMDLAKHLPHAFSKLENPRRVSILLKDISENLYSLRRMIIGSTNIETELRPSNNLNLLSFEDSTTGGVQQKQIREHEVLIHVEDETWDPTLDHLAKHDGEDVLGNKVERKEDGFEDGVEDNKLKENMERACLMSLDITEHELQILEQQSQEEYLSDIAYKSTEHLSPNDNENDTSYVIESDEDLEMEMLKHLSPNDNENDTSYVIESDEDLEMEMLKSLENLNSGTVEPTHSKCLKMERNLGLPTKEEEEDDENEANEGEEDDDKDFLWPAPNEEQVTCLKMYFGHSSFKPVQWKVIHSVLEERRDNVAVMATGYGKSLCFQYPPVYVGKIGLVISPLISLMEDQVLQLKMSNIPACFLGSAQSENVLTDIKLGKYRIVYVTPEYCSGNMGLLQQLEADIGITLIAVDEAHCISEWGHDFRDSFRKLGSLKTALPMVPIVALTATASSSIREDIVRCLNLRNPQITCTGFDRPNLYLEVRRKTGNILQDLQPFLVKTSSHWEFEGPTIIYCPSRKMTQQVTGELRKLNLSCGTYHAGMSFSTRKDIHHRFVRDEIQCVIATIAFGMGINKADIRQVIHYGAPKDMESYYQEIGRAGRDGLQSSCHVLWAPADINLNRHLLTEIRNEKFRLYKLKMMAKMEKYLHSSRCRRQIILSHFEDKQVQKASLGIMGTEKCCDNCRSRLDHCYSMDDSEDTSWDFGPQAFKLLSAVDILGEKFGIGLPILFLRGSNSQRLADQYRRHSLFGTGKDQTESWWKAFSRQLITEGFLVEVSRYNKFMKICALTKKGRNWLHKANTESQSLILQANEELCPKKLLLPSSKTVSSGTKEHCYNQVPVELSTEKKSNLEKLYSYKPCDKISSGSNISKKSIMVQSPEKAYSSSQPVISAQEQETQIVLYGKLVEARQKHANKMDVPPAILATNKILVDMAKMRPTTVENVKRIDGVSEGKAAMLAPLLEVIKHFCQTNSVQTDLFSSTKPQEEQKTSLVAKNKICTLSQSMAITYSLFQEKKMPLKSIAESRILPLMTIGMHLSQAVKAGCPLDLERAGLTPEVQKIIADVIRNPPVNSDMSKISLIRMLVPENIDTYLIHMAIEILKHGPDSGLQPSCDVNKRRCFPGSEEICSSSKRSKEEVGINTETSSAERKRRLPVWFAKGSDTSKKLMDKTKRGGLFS
Experimental: as §2

WRN D1D2 C727A = molecular target: T8, WRN D1D2 C727A (Homo sapiens, UniProt Q14191, C727A); test: ATPase assay; conditions: read-out: Biochemical IC50 ATPase WRN D1D2 C727A
T8 construct: the minimal D1–D2 helicase core (WRN 517–945)
T8 sequence (Q14191 517-945 C727A): as the sequence (Q14191 517-945) above, with C211A counted along it
Experimental: as §2

[5] = author rebuttal, compound numbers of an earlier manuscript version, read-out: Cy5-ATPγS binding assay in TR-FRET - IC50

SMILES: Cc1c(N2CCN(C(=O)c3c(F)ccc(F)c3O)CC2)c(=O)n2nc(C3=CCOCC3)nc2n1CC(=O)Nc1ccc(C(F)(F)F)cc1 [compound 2]
- Rat PK, oral bioavailability (F) (Rat PK): 0 % F
- Papp (MDCK LE permeability): 0.2 ×10⁻⁶ cm/s
- IC50 (RecQ5): > 100 µM
- IC50 (RecQ1): > 100 µM
- logD (logD / logP): 3.7
- IC50 [1, 5]: 0.009 µM

SMILES: Cc1cccc(NC(=O)Cn2c(C)cc(=O)n3nc(-c4cccs4)nc23)c1C [compound 1]
- IC50 ([2]; Fig. 1b, ATP concentration not given, read-out: ATPase IC50): 22 µM
- IC50 ([1]; WRN D1D2RH, Fig. 1b, Extended Data Fig. 2b, read-out: ATP binding IC50): 3 µM
- IC50 [1, 5]: 3.3 µM

SMILES: CC[C@@]1(O)C(=O)OCc2c1cc1n(c2=O)Cc2cc3ccccc3nc2-1 [camptothecin, reference compound]
- WRN degradation, dependence on MSI/MSS status [3]: irrespective of their MSI/MSS status

SMILES: [3H]c1cc(C(F)(F)F)cc([3H])c1NC(=O)Cn1c(C)c(N2CCN(C(C)=O)CC2)c(=O)n2nc(N3CCN(C(C)=O)CC3)nc12 [compound 6]
- Kd (WRN (D1D2RH); in absence of dsDNA): 0.01 µM
- Kd (WRN (D1D2RH); in presence of 50 nM dsDNA): 0.014 µM

SMILES: CCc1c2c(nc3ccc(OC(=O)N4CCC(N5CCCCC5)CC4)cc13)-c1cc3c(c(=O)n1C2)COC(=O)[C@]3(O)CC [irinotecan, reference compound]
- Mean TVol (mm3) (SW48 xenografts; day 0 post 1st dose): 254.88 mm3
- Mean TVol (mm3) (SW48 xenografts; day 4 post 1st dose): 329.29 mm3
- Mean TVol (mm3) (SW48 xenografts; day 7 post 1st dose): 550.55 mm3
- Mean TVol (mm3) (SW48 xenografts; day 11 post 1st dose): 635.45 mm3
- Mean TVol (mm3) (SW48 xenografts; day 14 post 1st dose): 640.95 mm3
- Mean TVol (mm3) (SW48 xenografts; day 18 post 1st dose): 669.98 mm3
- Mean TVol (mm3) (SW48 xenografts; day 21 post 1st dose): 833.51 mm3

SMILES: CC(=O)N1CCN(c2c(C)n(CC(=O)Nc3ccc(Cl)cc3)c3nc(N4CCN(C(=O)OC(C)(C)C)CC4)nn3c2=O)CC1 [compound 5]
- IC50 [4]: 0.25 µM
- IC50 (WRN D1D2 C727S): 25 µM
- IC50 (WRN full length): 0.11 µM
- IC50 (WRN D1D2 C727A): 1.1 µM
- IC50 ([2]; Extended Data Fig. 2b, read-out: Biochemical IC50 ATPase WRN D1D2RH): 0.27 µM
- mode of action with regard to DNA ([2]; KDNA determination, 0.5 nM WRN D1D2RH, 100 µM ATP): non-competitive mode of action
- IC50 [1, 5]: 0.013 µM
